# Measurements published in patent US7186413B2, “Hydrogels and water soluble polymeric carriers for drug delivery” (The Regents of the University of Michigan, priority 1998, dated 2007).
# What was measured:
# [1] = release of ionically bound or physically entrapped drugs and dyes from hydrogels; assay type: physicochemical
# Protocol: Samples containing 9.8, 19.5, and 39.1 mg brilliant blue per gram of PAG either with or without calcium (which enhances gelling) were studied over a period of several weeks.
# [2] = system: KB cells; assay: standard cytotoxicity assay with KB cells
# Protocol: The activity of covalently bound daunomycin released from 6 wt % PAG gels was tested using KB cells in a standard cytotoxicity assay. Gels containing either zero, 13.3 or 30 mg of drug per gram of PAG were incubated in sterile media at 37° C. which was tested and replaced weekly.
# The biocompatibility of PAG has been tested in vitro.
# Sodium periodate, adipic dihydrazide, ethylene glycol, and calcium chloride were purchased from Aldrich Chemical Company (Milwaukee, Wis.) and were used as received. Daunomycin hydrochloride was purchased from Fluka Chemical Corporation (Ronkonkoma, N.Y.). Dulbecco's Modified Eagle's Medium (DMEM) was purchased from Life Technologies (Grand Island, N.Y.). […] The elution of the drug was monitored at 480 nm. • Synthesis of the poly(aldehyde guluronate), PAG. […] The product was analyzed by ^1H-NMR, FTIR, and the aldehyde content was quantified using trinitrobenzene sulfonic acid. • Preparation of cross-linked PAG hydrogels. […] To quantify the amount of daunomycin that is incorporated in the gels, two sets of hydrogels were formed as described above. […] The solutions were then sonicated for 30 minutes, quantitatively transferred to 5 ml volumetric flasks, and diluted with double distilled water. […]
# [3] = in vitro release of daunomycin from cross-linked PAG hydrogels; assay type: physicochemical
# [4] = determination of the drug incorporated (retained) in PAG hydrogel; assay type: physicochemical; details: lyophilized, crushed PAG hydrogel extracted with water
# Protocol: The reaction described in Example 2 was utilized to incorporate daunomycin into hydrogels for localized drug delivery. HPLC was used to determine the amount of daunomycin that reacted with adipic dihydrazide before the addition of PAG. Mixtures of daunomycin and adipic dihydrazide were analyzed and found to contain 88.5% of the daunomycin-adipic dihydrazide conjugate and 11.5% of free drug (FIG. 21). The amount of daunomycin that was covalently incorporated into the hydrogel was next determined by quantifying the amount of free drug in the hydrogel. Hydrogels containing daunomycin or trypan blue were synthesized, frozen, lyophilized, and crushed to form powders. The free drug was then dissolved in water and the resulting mixture was filtered to remove any fine particles. The concentration of the free drug was then determined spectrophotometrically. […] Only two percent of the trypan blue was retained in the hydrogel. In comparison, 86.9±0.1% of daunomycin remained in the gelatinous particles. Moreover, hydrogels containing trypan blue that were incubated in DMEM released the entire drug within 24 hours. These findings clearly indicate that daunomycin is covalently coupled to the hydrogel through the adipic dihydrazide molecule. The daunomycin incorporation in the hydrogels correlates well with the percentage of daunomycin-adipic dihydrazide conjugate that was determined by HPLC analysis. […]
structure (smiles),measurement,setting,value
CN(Cc1cnc2nc(N)nc(N)c2n1)c1ccc(C(=O)N[C@@H](CCC(=O)O)C(=O)O)cc1 [Methotrexate],time to quantitative release from the hydrogels,"[1]; physically entrapped, diffusion, all conditions",≤ 5 days
O=C1c2c(O)ccc(O)c2C(=O)c2c(NCCNCCO)ccc(NCCNCCO)c21 [Mitoxantrone],"cytotoxicity of drug alone versus mixed with AAD (prodrug formation, FIG. 9)",[2]; mixed with AAD,not found to form a prodrug
COc1cccc2c1C(=O)c1c(O)c3c(c(O)c1C2=O)C[C@@](O)(C(C)=O)C[C@@H]3O[C@H]1C[C@H](N)[C@H](O)[C@H](C)O1 [daunomycin],drug released during the first six weeks,"[3]; 6% w/w PAG, 150 mM AAD, 40 mM calcium",40%
same,release rate of drug from hydrogel,"[3]; 6% w/w PAG, 150 mM AAD, 40 mM calcium, first six weeks",0.8 % drug per day
same,time to release of all incorporated drug,"[3]; 6% w/w PAG, 150 mM AAD, absence of calcium",four
same,release rate of drug from hydrogel,"[3]; 6% w/w PAG, 150 mM adipic dihydrazide, acidic medium",1.8 % per day
same,release rate of drug from hydrogel,"[3]; 6% w/w PAG, 150 mM adipic dihydrazide, neutral condition",1 % per day
same,time to release of total incorporated drug,"[3]; 6 wt % PAG, 8 mM daunomycin, 150 mM AAD",thirty
same,release rate of drug from hydrogel,"[3]; 6 wt % PAG, 8 mM daunomycin, 150 mM AAD, first ten days, DMEM 37° C.",1 % drug per day
same,release rate of drug from hydrogel,"[3]; 6 wt % PAG, 8 mM daunomycin, 150 mM AAD, following twenty-two days",approximately 4 % per day
same,time to release of total drug loaded,"[3]; 6 wt % PAG, 50 mM AAD cross-linker",two
same,time to release of total drug loaded,"[3]; 6 wt % PAG, 100 mM AAD",two
same,time to release of total drug loaded,"[3]; 6 wt % PAG, elevated AAD concentrations",more than six
same,fraction retained in the hydrogel particles,[4],86.9±0.1%
same,IC50,"[2]; Homo sapiens, KB, 48 h",202 ± 48 nM
Cc1cc(-c2ccc(/N=N/c3c(S(=O)(=O)O)cc4cc(S(=O)(=O)O)cc(N)c4c3O)c(C)c2)ccc1/N=N/c1c(S(=O)(=O)O)cc2cc(S(=O)(=O)O)cc(N)c2c1O [trypan blue],time to release of the entire drug from hydrogel,[1]; PAG hydrogels incubated in DMEM,≤ 24 h
same,fraction retained in the hydrogel particles,[4],two
